Measurements as given in paper PMC7585200, “Methanosarcina acetivorans contains a functional ISC system for iron-sulfur cluster biogenesis” (BMC Microbiology, 2020).
One block for each compound: values may come before it.

Legend:
IscS2 [1] = biological target: T1, IscS2 (Methanosarcina acetivorans, UniProt Q8TME0); assay: sulfide release, methylene blue assay ([…] nm); format: biochemical; conditions: 1 mM L-cysteine, 1 mM DTT, 50 mM Tris pH 7.5, 25 °C, with or without 50 μM PLP
T1 construct: gene iscS; full-length, N-terminal His6-tag (pET28a) cut with thrombin, E. coli Rosetta (DE3) pLacI; homodimer (84 kDa by SEC)
T1 sequence (Q8TME0 entry or part of it): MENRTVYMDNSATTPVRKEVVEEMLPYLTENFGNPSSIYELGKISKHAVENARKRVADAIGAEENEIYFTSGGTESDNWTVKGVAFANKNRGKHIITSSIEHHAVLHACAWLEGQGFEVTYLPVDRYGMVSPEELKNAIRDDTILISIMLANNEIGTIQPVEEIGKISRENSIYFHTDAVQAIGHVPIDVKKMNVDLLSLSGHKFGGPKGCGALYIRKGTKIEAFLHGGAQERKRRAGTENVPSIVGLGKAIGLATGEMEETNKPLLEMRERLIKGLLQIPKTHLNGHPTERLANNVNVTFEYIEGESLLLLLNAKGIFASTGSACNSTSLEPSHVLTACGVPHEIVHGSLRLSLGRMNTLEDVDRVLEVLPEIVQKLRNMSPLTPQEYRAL

IscS2 [2] = biological target: T1, IscS2; assay: UV-visible spectrum ([…] nm) and cysteine desulfurase activity with and without PLP; format: biochemical; conditions: PLP reconstitution at pH 7.2, 25 °C; assay 50 mM Tris pH 7.5, 1 mM L-cysteine, 1 mM DTT, 50 μM PLP
[3] = biological target: Methanosarcina acetivorans IscS2 (MA2718), reconstituted with PLP (Methanosarcina acetivorans); assay: SEC; IscS2^PLP (3.3 mg loaded) on HiPrep 16/60 Sephacryl S-200, 0.5 ml/min, 50 mM Tris pH 8.0, 150 mM NaCl, 2 mM DTT, 10% glycerol; calibrated with standard proteins; calculated 84 kDa

Compound: N[C@@H](CS)C(=O)O [L-cysteine]
sulfide release, methylene blue assay (670 nm) (IscS2 [1]): Purified IscS2 was able to remove sulfur from L-cysteine

Compound: Cc1ncc(COP(=O)(O)O)c(C=O)c1O [PLP]
UV-visible spectrum (420 nm) and cysteine desulfurase activity with and without (IscS2 [2]): these results reveal that IscS2 is a PLP-dependent cysteine desulfurase

stoichiometry N [3]: 2
Compound: Methanosarcina acetivorans IscS2 (MA2718), reconstituted with PLP (enzyme)
